Reference: ChEMBL document CHEMBL1149923, “Synthesis and activity of enantiopure (S) (m-nitrobenzoyl) alanine, potent kynurenine-3-hydroxylase inhibitor” (Bioorg Med Chem Lett, 1995)

What was measured:
[1] = biological target: Kynurenine 3-monooxygenase (Rattus norvegicus) (UniProt O88867); conditions: 100 uM
Description: Tested for inhibitory activity against kynurenine 3-hydroxylase at 100 uM concentration

Kynureninase = biological target: T1, Kynureninase (Rattus norvegicus, UniProt P70712); test: Tested for inhibitory activity against kynureninase from rat liver
T1 sequence (P70712 whole entry): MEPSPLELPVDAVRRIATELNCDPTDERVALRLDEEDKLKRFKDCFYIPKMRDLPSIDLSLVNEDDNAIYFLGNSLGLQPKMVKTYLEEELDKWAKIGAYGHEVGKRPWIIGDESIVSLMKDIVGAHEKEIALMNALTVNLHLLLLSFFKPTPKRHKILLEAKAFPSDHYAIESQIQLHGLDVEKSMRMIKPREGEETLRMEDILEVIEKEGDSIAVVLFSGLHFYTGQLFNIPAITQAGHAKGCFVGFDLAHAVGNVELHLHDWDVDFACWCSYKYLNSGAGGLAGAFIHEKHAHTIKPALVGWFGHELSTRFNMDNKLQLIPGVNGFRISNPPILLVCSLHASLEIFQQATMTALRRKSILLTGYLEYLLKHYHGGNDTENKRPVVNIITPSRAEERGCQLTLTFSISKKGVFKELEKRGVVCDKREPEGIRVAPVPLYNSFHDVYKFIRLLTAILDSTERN

[2] = biological target: Kynurenine 3-monooxygenase (Rattus norvegicus, UniProt O88867); test: Tested for inhibitory activity against kynurenine 3-hydroxylase
Kynurenine 3-monooxygenase, sequence (O88867 whole entry): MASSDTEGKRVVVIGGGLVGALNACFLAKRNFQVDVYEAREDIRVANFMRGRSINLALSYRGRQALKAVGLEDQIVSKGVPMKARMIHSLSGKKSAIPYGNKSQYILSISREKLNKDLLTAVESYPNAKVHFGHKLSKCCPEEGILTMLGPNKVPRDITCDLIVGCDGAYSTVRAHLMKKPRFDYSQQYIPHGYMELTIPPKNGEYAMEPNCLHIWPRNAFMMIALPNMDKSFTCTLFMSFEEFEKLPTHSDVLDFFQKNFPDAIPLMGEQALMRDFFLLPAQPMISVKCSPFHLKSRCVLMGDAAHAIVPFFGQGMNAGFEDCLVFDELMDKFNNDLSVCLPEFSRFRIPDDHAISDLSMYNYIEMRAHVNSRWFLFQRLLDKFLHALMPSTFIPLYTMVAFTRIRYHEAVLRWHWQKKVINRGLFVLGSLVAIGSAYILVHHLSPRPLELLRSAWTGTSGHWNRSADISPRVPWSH

Kynurenine 3-monooxygenase (Rattus norvegicus), sequence (O88867 whole entry, looked up): as the sequence (O88867 whole entry) above

| inhibition [1] | IC50 (Kynureninase) | IC50 [2] | SMILES |
| --- | --- | --- | --- |
| 60% | 100 µM |  | N[C@H](CC(=O)c1cccc([N+](=O)[O-])c1)C(=O)O |
|  | 60 µM | 0.5 µM | N[C@@H](CC(=O)c1cccc([N+](=O)[O-])c1)C(=O)O |
